Data from paper PMC8232266, “Lanolin-Based Synthetic Membranes for Transdermal Permeation and Penetration Drug Delivery Assays” (Membranes, 2021).
“Also recorded” adds a separate entry of the source. Like-named read-outs stand apart in the source and are kept apart here. Marks after values point to notes of the source that are not given here.

Columns and labels:
[1] = infinite dose
[2] = Infinite-dose kinetic permeation assay, vertical Franz diffusion cells, 5% SEL lanolin membrane; assay type: in vitro ADME
Method: (§1) For the preparation of the membranes, the procedure described by Pullmannová, et al. was followed. […] Next, 300 µL of the lipid solution was spread onto the pre-weighed NP membranes (≈15 mg lanolin) in a three-step process. The solvent was then evaporated under a stream of N2. The lipid membranes prepared were vacuum-dried over […] in a desiccator and were stored in a fridge at 5 °C for 24 h. Prior to use, the lanolin-based membranes were then heated to 75 °C, equilibrated for 10 min, and then cooled down slowly (~3 h) to 32 °C. The last part of the cooling-heating cycle was incubation for 24 h at 32 °C. Using a skin pHmeter (Sebumeter pH 900, Courage + Khazaka, Cologne, Germany), the pH of the membranes was determined.
(§2) Lastly, the entire system was clamped shut.

[3] = Infinite-dose kinetic permeation assay, vertical Franz diffusion cells, 5% WEL lanolin membrane; assay type: in vitro ADME; details: DS 3% / LIDO 2% in PG; for J (flux): Ord 0 model
Method: as §1, §2

[4] = Infinite-dose kinetic permeation assay, vertical Franz diffusion cells, Nuclepore membrane; assay type: in vitro ADME; details: NP, DS 3% / LIDO 2% in PG; for J (flux): Higuchi model
Description: as §2

[5] = Finite-dose penetration test, Franz diffusion cells, Nuclepore-SEL membrane; assay type: in vitro ADME; details: finite dose 20 µL, 24 h, Figure 1

Compound: O=C(O)Cc1ccccc1Nc1c(Cl)cccc1Cl [Diclofenac Sodium, Diclofenac sodium]
- Kinetics of Release (best-fit model) ([1]; SKIN, DS 3% / LIDO 2% in PG): Ord 0
- J (flux) ([1]; SKIN, Ord 0 model, DS 3% / LIDO 2% in PG): 3.94 µg/cm^2/h
- permeability (percentage permeated through the skin) ([1]; pig skin, at 30 h): 0.83 ± 0.42%
- Kinetics of Release (best-fit model) ([2]; DS 3% / LIDO 2% in PG): Ord 0
- J (flux) ([2]; Ord 0 model, DS 3% in PG): 30.40 * µg/cm^2/h
- Kinetics of Release (best-fit model) ([3]; listed as DS): zero-order kinetics; also recorded: Ord 0
- J (flux) [3]: 6.18 µg/cm^2/h
- Kinetics of Release (best-fit model) [4]: Higuchi
- J (flux) [4]: 2307.12 * µg/cm^2/h^½
- permeation through Nuclepore-SEL membrane compared with skin [5]: insignificant difference compared with the skin

Compound: CCN(CC)CC(=O)Nc1c(C)cccc1C [Lidocaine, lidocaine]
- J (flux) ([2]; Higuchi model, LIDO 2% in PG): 343.05 * µg/cm^2/h^½
- J (flux) [3]: 4.85 µg/cm^2/h
- Kinetics of Release (best-fit model) [4]: Higuchi
- J (flux) [4]: 1360.27 * µg/cm^2/h^½
